The values that follow come from article PMC9399058, “Preclinical evaluation of FAP-2286 for fibroblast activation protein targeted radionuclide imaging and therapy” (European Journal of Nuclear Medicine and Molecular Imaging, 2022).

Where two headings read alike, the source gives them in different places.

The nature of data set [1]: Plasma stability assay, mouse plasma. It is filed as in vitro ADME. The settings on record: 24 h at 37 °C. As to the method: FAP-2286 was incubated in human or mouse plasma at 37 °C for 24 h. Compound concentration was measured using HPLC–MS/MS (Agilent Technologies) and percent concentration remaining was calculated.
FAP-2286 was incubated in 50 µL of plasma with 3.8% sodium citrate as anticoagulant at a concentration of 10 µM. After 1, 2, 4, and 24 hours incubation at 37°C a suitable internal standard was added. FAP-2286 with plasma proteins were precipitated using 150 µL of a precipitation agent consisting of 77% 0.1 M zinc sulfate solution and 23% acetonitrile. Precipitation was carried out on ice for 30 minutes. […]
A nonincubated plasma sample spiked with 10 µM sample concentration was prepared in the same way and was used as the reference. […] The samples were analyzed using an Agilent 1290 UHPLC system coupled to an Agilent 6530 QTOF mass spectrometer.
For the quantitative data analysis, the Agilent Quantitative Analysis B.08.00 software (RRID:SCR_015040) was used. […] The concentration of the compound was determined by external matrix calibration using 6 calibration samples (1, 2.5, 5, 7.5, 10, and 12.5 µM). […] Carryover was determined by analyzing the blank sample directly after the highest calibration sample and comparing the determined peak areas. Recovery was calculated as the ratio between the spiked concentration of the recovery sample and the concentration calculated from the peak area of this sample.

Another data set deals with HEK-FAP xenografts. Nature of the data set: SPECT/CT biodistribution and tumor dosimetry of 177Lu-labeled tracers in HEK-FAP tumor-bearing mice. It is filed as in vivo, mouse. As to conditions: 177Lu-labeled, HEK-FAP tumors. The method, then: (§1) HEK-FAP cell line was generated using the vector pTAR to insert FAP complementary DNA by recombinase-mediated cassette exchange into the pre-tagged HEK293 cells (InSCREENeX). For in vivo HEK-FAP studies, female nude or SCID beige mice (Charles River Laboratories) were subcutaneously implanted with 5 × 10^6 HEK-FAP cells in 150 µL serum-free media:Matrigel (1:1) (Corning). For the patient-derived xenograft (PDX) efficacy study, female NMRI nu/nu mice (Janvier Labs) were subcutaneously implanted with Sarc4809 fragments (Experimental Pharmacology & Oncology Berlin-Buch). All animal experiments were carried out under licenses approved by the respective authorities and in compliance with guidelines on animal welfare.
(§2) Thirty megabecquerels (30 MBq/nmol) ^111In-FAP-2286 (n = 9) or ^111In-FAPI-04 (n = 6) was injected intravenously (IV) into HEK-FAP tumor-bearing mice and the distribution of the radiotracers was assessed using the NanoSPECT/computed tomography (CT) system (Mediso). For PET imaging, 10 MBq of ^68Ga-FAP-2286 or ^68Ga-FAPI-46 (10 MBq/nmol) was given IV into HEK-FAP tumor-bearing mice (n = 3) followed by PET/CT analysis using the nanoScan PET/CT system (Mediso). For SPECT imaging of ^177Lu-labeled FAP-2286 or ^177Lu-labeled FAPI-46, 30 MBq was administered IV (30 MBq/nmol; n = 3) and the distribution of the radiotracers was assessed using the nanoScan SPECT/CT system (Mediso).
(§3) The animal studies were conducted in different laboratories. ^111In-Imaging and efficacy studies using the HEK-FAP model and different doses of ^177Lu-FAP-2286 as well as the Sarc4809 PDX efficacy study took place at Berlin Experimental Imaging Center (BERIC, Germany). The Sarc4809 model was originally derived from a primary lesion of undifferentiated pleomorphic sarcoma. These studies were performed in either female swiss nude (Charles River Laboratories, France – ^111In-Imaging), NMRI nude (Janvier Labs, France – PDX efficacy study) or SCID beige mice (Charles River Laboratories, Germany - ^111In-Imaging). ^68Ga-Imaging and comparative studies with ^177Lu labeled FAP-2286 and FAPI-46 were performed at Minerva Imaging ApS, Denmark using female athymic nude mice (Charles River Laboratories, Germany). For all experiments animals were ordered with an age of approximately 6 weeks. Animals were allowed an acclimatization period of at least one week prior to inoculation. Animals were housed in an animal room with 12 hours light and 12 hours darkness with free access to food and water. A maximum number of 5 animals were housed in the same cage, cages were equipped with nesting material and plastic or paper houses for hiding. Each cage was labeled with study ID, group and animal numbers and test compound. For efficacy studies animals were randomized according to tumor size. Animals were checked daily for any signs of illness or abnormal behavior. Main humane endpoints were defined as tumor volumes > 1500 mm^3, tumor burden > 10% of animal weight, body weight loss >15% and tumor ulceration. When reaching one of these criteria the animal was sacrificed by cervical dislocation. All animal experiments were approved either by the Regional Office for Health and Social Affairs Berlin (LAGeSo), Germany or the National Animal Experiments Inspectorate under the Ministry of Environment and Food of Denmark.
(§4) Imaging and image analysis were performed as described. During the scan, mice were kept under isoflurane anesthesia, and body temperature was maintained under warm air. The following acquisition parameters were used for the respective imaging modality.
(§5) For quantification, VivoQuant (InviCRO) was used to draw regions of interest (ROIs) in relevant tissues, with a ROI drawn over the left ventricle of the heart to serve as blood pool surrogate. […]

Data set [2] in a line: PET/CT biodistribution of 68Ga-labeled tracers in HEK-FAP tumor-bearing mice. The settings on record: mouse, in vivo, 10 MBq IV, n=3. The method, then:
as §1
Thirty megabecquerels (30 MBq/nmol) ^111In-FAP-2286 (n = 9) or ^111In-FAPI-04 (n = 6) was injected intravenously (IV) into HEK-FAP tumor-bearing mice and the distribution of the radiotracers was assessed using the NanoSPECT/computed tomography (CT) system (Mediso). […] For SPECT imaging of ^177Lu-labeled FAP-2286 or ^177Lu-labeled FAPI-46, 30 MBq was administered IV (30 MBq/nmol; n = 3) and the distribution of the radiotracers was assessed using the nanoScan SPECT/CT system (Mediso). […]
as §5

For a further data set, the system named is neoplastic lesions. On the set-up: method as in PMID 34168013. As to conditions: patients with pancreatic, breast, ovarian, or colorectal carcinomas ref 51; cited from earlier work.
Data set [3] in a line: SPECT/CT biodistribution of 111In-labeled tracers in HEK-FAP tumor-bearing mice. As to conditions: mouse; for tissue uptake at 1 h / tissue uptake at 3 h / tissue uptake at 6 h / tissue uptake at 24 h / tissue uptake at 48 h: in vivo. It is filed as in vivo, mouse. The method, then:
as §1, §2, §3, §4, §5

On to `CCCCCC(=O)N[C@H]1CSCc2cc(CSCCNC(=O)CN3CCN(CC(=O)O)CCN(CC(=O)O)CCN(CC(=O)O)CC3)cc(c2)CSC[C@@H](C(=O)O)NC(=O)[C@H](Cc2ccccc2)NC(=O)[C@H](CCC(N)=O)NC(=O)[C@H]([C@@H](C)O)NC(=O)[C@@H]2CCCN2C(=O)[C@@H]2CCCN2C1=O` [FAP-2286], for which the “percent retained in mouse plasma” value in data set [1] stood at 85%. Besides, in the data set with HEK-FAP xenografts, the “fold higher TIAC compared to FAPI-46” value is 12 fold and the “fold higher absorbed dose delivered to the tumors compared to FAPI-46” value was 9 fold.

With `CCCCCC(=O)N[C@H]1CSCc2cc(CSCCNC(=O)CN3CCN(CC(=O)O)CCN(CC(=O)O)CCN(CC(=O)O)CC3)cc(c2)CSC[C@@H](C(=O)O)NC(=O)[C@H](Cc2ccccc2)NC(=O)[C@H](CCC(N)=O)NC(=O)[C@H]([C@@H](C)O)NC(=O)[C@@H]2CCCN2C(=O)[C@@H]2CCCN2C1=O` [^68Ga-FAP-2286, metal not drawn], the tissue uptake at 0.5 h in data set [2] (0.5 h after administration) stood at 9.8 %ID/g. Moreover, the tissue uptake at 3 h in data set [2] (3 h after injection) turned out to be 10.8 %ID/g. Moreover, the “PET/CT uptake in patients” value in the data set on neoplastic lesions was “significant uptake in neoplastic lesions and low presence in normal tissues”.

Regarding `CCCCCC(=O)N[C@H]1CSCc2cc(CSCCNC(=O)CN3CCN(CC(=O)O)CCN(CC(=O)O)CCN(CC(=O)O)CC3)cc(c2)CSC[C@@H](C(=O)O)NC(=O)[C@H](Cc2ccccc2)NC(=O)[C@H](CCC(N)=O)NC(=O)[C@H]([C@@H](C)O)NC(=O)[C@@H]2CCCN2C(=O)[C@@H]2CCCN2C1=O` [^111In-FAP-2286, metal not drawn], in data set [3] (female, tumor and kidney, iv, 30 MBq, total radioactivity, tumor-to-kidney, 1 h p.i., read-out: T/K ratio (mean ± SD)), the tissue to tissue ratio at 1 h came out at 3 ± 1.3. The tissue to tissue ratio at 3 h in data set [3] (female, tumor and kidney, iv, 30 MBq, total radioactivity, tumor-to-kidney, 3 h p.i., read-out: T/K ratio (mean ± SD)) worked out at 4.6 ± 1.9. Further, the tissue to tissue ratio at 6 h in data set [3] (female, tumor and kidney, iv, 30 MBq, total radioactivity, tumor-to-kidney, 6 h p.i., read-out: T/K ratio (mean ± SD)) amounted to 5 ± 2.8. For the same compound, in data set [3] (female, tumor and kidney, iv, 30 MBq, total radioactivity, tumor-to-kidney, 24 h p.i., read-out: T/K ratio (mean ± SD)), the tissue to tissue ratio at 24 h came to 5.9 ± 3.3. Further, in data set [3] (female, tumor and kidney, iv, 30 MBq, total radioactivity, tumor-to-kidney, 48 h p.i., read-out: T/K ratio (mean ± SD)), the tissue to tissue ratio at 48 h came out at 7.5 ± 4.8. Further, the tissue uptake at 1 h in data set [3] (1 h p.i., read-out: Salivary Glands %ID/g (mean ± SD)) came out at 0.6 ± 0.4 %ID/g; in data set [3] (heart, 1 h p.i., read-out: Blood Pool Surrogate %ID/g (mean ± SD)) it was 0.4 ± 0.1 %ID/g; in data set [3] (iv, 1 h p.i., 30 MBq IV, HEK-FAP mice, n=9, read-out: Tumor %ID/g (mean ± SD)) it was 11.1 ± 4.3 %ID/g; in data set [3] (iv, 1 h p.i., 30 MBq IV, HEK-FAP mice, read-out: Kidney %ID/g (mean ± SD)), 3.9 ± 1 %ID/g; in data set [3] (iv, 1 h p.i., 30 MBq IV, HEK-FAP mice, read-out: Liver %ID/g (mean ± SD)) it was 0.3 ± 0.1 %ID/g; in data set [3] (non-tumor bearing shoulder, 1 h p.i., read-out: Shoulder %ID/g (mean ± SD)), 1.2 ± 0.6 %ID/g. For the same compound, the tissue uptake at 3 h in data set [3] (3 h p.i., read-out: Salivary Glands %ID/g (mean ± SD)) came out at 0.2 ± 0.1 %ID/g; in data set [3] (heart, 3 h p.i., read-out: Blood Pool Surrogate %ID/g (mean ± SD)), 0.1 ± 0.1 %ID/g; in data set [3] (iv, 3 h p.i., 30 MBq IV, HEK-FAP mice, read-out: Kidney %ID/g (mean ± SD)), 2.5 ± 0.4 %ID/g; in data set [3] (iv, 3 h p.i., 30 MBq IV, HEK-FAP mice, read-out: Liver %ID/g (mean ± SD)), 0.2 ± 0.1 %ID/g; in data set [3] (non-tumor bearing shoulder, 3 h p.i., read-out: Shoulder %ID/g (mean ± SD)), 0.4 ± 0.1 %ID/g. Besides, the tissue uptake at 6 h in data set [3] (6 h p.i., read-out: Salivary Glands %ID/g (mean ± SD)) came to 0.2 ± 0.2 %ID/g; in data set [3] (heart, 6 h p.i., read-out: Blood Pool Surrogate %ID/g (mean ± SD)), 0.1 %ID/g; in data set [3] (iv, 6 h p.i., 30 MBq IV, HEK-FAP mice, n=9, read-out: Tumor %ID/g (mean ± SD)), 11.4 ± 6.6 %ID/g; in data set [3] (iv, 6 h p.i., 30 MBq IV, HEK-FAP mice, read-out: Kidney %ID/g (mean ± SD)), 2.2 ± 0.3 %ID/g; in data set [3] (iv, 6 h p.i., 30 MBq IV, HEK-FAP mice, read-out: Liver %ID/g (mean ± SD)), 0.1 %ID/g; in data set [3] (non-tumor bearing shoulder, 6 h p.i., read-out: Shoulder %ID/g (mean ± SD)), 0.1 ± 0.1 %ID/g. The tissue uptake at 24 h worked out at 9.7 ± 5.3 %ID/g in data set [3] (iv, 24 h p.i., 30 MBq IV, HEK-FAP mice, n=9, read-out: Tumor %ID/g (mean ± SD)); 1.6 ± 0.2 %ID/g in data set [3] (iv, 24 h p.i., 30 MBq IV, HEK-FAP mice, read-out: Kidney %ID/g (mean ± SD)); 0.1 %ID/g in data set [3] (iv, 24 h p.i., 30 MBq IV, HEK-FAP mice, read-out: Liver %ID/g (mean ± SD)); 0.1 %ID/g in data set [3] (non-tumor bearing shoulder, 24 h p.i., read-out: Shoulder %ID/g (mean ± SD)). For the same compound, the tissue uptake at 48 h in data set [3] (iv, 48 h p.i., 30 MBq IV, HEK-FAP mice, n=9, read-out: Tumor %ID/g (mean ± SD)) stood at 9.1 ± 5 %ID/g; in data set [3] (iv, 48 h p.i., 30 MBq IV, HEK-FAP mice, read-out: Kidney %ID/g (mean ± SD)) it was 1.3 ± 0.2 %ID/g; in data set [3] (iv, 48 h p.i., 30 MBq IV, HEK-FAP mice, read-out: Liver %ID/g (mean ± SD)), 0.1 %ID/g; in data set [3] (non-tumor bearing shoulder, 48 h p.i., read-out: Shoulder %ID/g (mean ± SD)) it was 0.1 %ID/g.
